Source: patent US9113629B2, “4-amino-6-(4-substituted-phenyl)-picolinates and 6-amino-2-(4-substituted-phenyl)-pyrimidine-4-carboxylates and their use as herbicides” (DOW AGROSCIENCES LLC, priority 2013, dated 2015)
Read-outs that look alike come from different tables or passages of the source.

Legend:
Format in all cases: in vivo
[1] = test system: AMARE: redroot pigwseed (Amaranthus retroflexus); assay: Pre-emergent Test I herbicidal activity; conditions: pre-emergence, 336 h, read-out: Visual Growth Reduction (%) 14 Days After Application, AMARE; for pest or weed control at 4040 g/ha: 4.04 kg ai/ha; for pest or weed control at 4000 g/ha: 4 kg ai/ha
Experimental: (§1) Pre-emergent Test I Seeds of test species were planted into round plastic pots (5-inch diameter) containing sandy loam soil. After planting, all pots were sub-irrigated 16 h prior to compound application. Compounds were dissolved in a 97:3 v/v (volume/volume) mixture of acetone and dimethyl sulfoxide (DMSO) and diluted to the appropriate concentration in a final application solution containing water, acetone, isopropanol, DMSO and Agri-dex (crop oil concentrate) in a 59:23:15:1.0:1.5 v/v ratio and 0.02% w/v (weight/volume) of Triton X-155 to obtain the spray solution containing the highest application rate. Additional application rates were obtained by serial dilution of the high rate solution with the above application solution. Formulated compound (2.7 mL) was applied pipetted evenly over the soil surface followed by incorporation with water (15 mL). Following treatment, pots were returned to the greenhouse for the duration of the experiment. The greenhouse was programmed for an approximate 15 h photoperiod which was maintained at about 23-29° C. during the day and 22-28° C. during the night. Nutrients and water were added on a regular basis through surface irrigation and supplemental lighting was provided with overhead metal halide 1000-Watt lamps as necessary. Herbicidal effect ratings were obtained 14 days after treatment. All evaluations were made relative to appropriate controls on a scale of 0 to 100 where 0 represents no herbicidal effect and 100 represents plant death or lack of emergence from the soil.

[2] = test system: AVEFA: wild oats (Avena fatua); assay: Pre-emergent Test I herbicidal activity; conditions: pre-emergence, 336 h, read-out: Visual Growth Reduction (%) 14 Days After Application, AVEFA; for pest or weed control at 4040 g/ha: 4.04 kg ai/ha; for pest or weed control at 4000 g/ha: 4 kg ai/ha
Experimental: as §1

[3] = test system: ECHCG: barnyardgrass (Echinochloa crus-galli); assay: Pre-emergent Test I herbicidal activity; conditions: pre-emergence, 336 h, read-out: Visual Growth Reduction (%) 14 Days After Application, ECHCG; for pest or weed control at 4040 g/ha: 4.04 kg ai/ha; for pest or weed control at 4000 g/ha: 4 kg ai/ha
Experimental: as §1

[4] = test system: HELAN: sunflower (Helianthus annuus); assay: Pre-emergent Test I herbicidal activity; conditions: pre-emergence, 336 h, read-out: Visual Growth Reduction (%) 14 Days After Application, HELAN; for pest or weed control at 4040 g/ha: 4.04 kg ai/ha; for pest or weed control at 4000 g/ha: 4 kg ai/ha
Experimental: as §1

[5] = test system: IPOHE: ivyleaf morningglory (Ipomoea hederecea); assay: Pre-emergent Test I herbicidal activity; conditions: pre-emergence, 336 h, read-out: Visual Growth Reduction (%) 14 Days After Application, IPOHE; for pest or weed control at 4040 g/ha: 4.04 kg ai/ha; for pest or weed control at 4000 g/ha: 4 kg ai/ha
Experimental: as §1

[6] = test system: SETFA: giant foxtail (Setaria faberi); assay: Pre-emergent Test I herbicidal activity; conditions: pre-emergence, 336 h, read-out: Visual Growth Reduction (%) 14 Days After Application, SETFA; for pest or weed control at 4040 g/ha: 4.04 kg ai/ha; for pest or weed control at 4000 g/ha: 4 kg ai/ha
Experimental: as §1

[7] = test system: test plant species in Direct Seeded Rice; assay: Postemergence herbicidal activity in direct seeded rice (Table 13); conditions: for pest or weed control at 35 g/ha / pest or weed control at 70 g/ha: post-emergence, 504 h; for pest or weed control at 35 g/ha: 35 g ai/ha; for pest or weed control at 70 g/ha: 70 g ai/ha
Text: Seeds or nutlets of the desired test plant species were planted in a soil matrix prepared by mixing a loam soil (43 percent silt, 19 percent clay, and 38 percent sand, with a pH of about 8.1 and an organic matter content of about 1.5 percent) and river sand in an 80 to 20 ratio. The soil matrix was contained in plastic pots with a surface area of 139.7 cm^2. When required to ensure good germination and healthy plants, a fungicide treatment and/or other chemical or physical treatment was applied. The plants were grown for 10-17 d in a greenhouse with an approximate 14-h photoperiod which was maintained at about 29° C. during the day and 26° C. during the night. Nutrients and water were added on a regular basis and supplemental lighting was provided with overhead metal halide 1000-Watt lamps as necessary. The plants were employed for testing when they reached the second or third true leaf stage. A weighed amount, determined by the highest rate to be tested, of each test compound was placed in 25 mL glass vials and dissolved in a volume of 97:3 v/v acetone-DMSO to obtain 12× stock solutions. […] The concentrated stock solutions were added to the spray solutions so that the final acetone and DMSO concentrations were 16.2% and 0.5%, respectively. Spray solutions were diluted to the appropriate final concentrations with the addition of 10 mL of an aqueous mixture of 1.5% (v/v) Agri-dex crop oil concentrate. […] Compound requirements are based upon a 12 mL application volume at a rate of 187 L/ha. Formulated compounds were applied to the plant material with an overhead Mandel track sprayer equipped with […] nozzles calibrated to deliver 187 L/ha over an application area of 0.503 square meters (m^2) at a spray height of 18 inches (43 cm) above average plant canopy height. Control plants were sprayed in the same manner with the solvent blank. The treated plants and control plants were placed in a greenhouse as described above and watered by sub-irrigation to prevent wash-off of the test compounds. After 20-22 days, the condition of the test plants, compared with that of the untreated plants, was determined visually and scored on a scale of 0 to 100 percent where 0 corresponds to no injury and 100 corresponds to complete kill. By applying the well-accepted probit analysis as described by J. Berkson in Journal of the American Statistical Society, 48, 565 (1953) and by D. Finney in “Probit Analysis” Cambridge University Press (1952), the above data can be used to calculate GR20, GR50, GR80 and GR90 values, which are defined as growth reduction factors that correspond to the effective dose of herbicide required to kill or control 20 percent, 50 percent, 80 percent or 90 percent, respectively, of a target plant.

[8] = BRAPP: broadleaf signalgrass, Brachiaria platyphylla, probit analysis
[9] = CYPSS: sedge (Cyperus difformis, esculentus, iria), probit analysis
[10] = ECHSS: barnyardgrass (Echinochloa crus-galli), junglerice (Echinochloa colonum), probit analysis
[11] = LEFSS: sprangletop (Leptochloa chinensis, Leptochloa dubia), probit analysis
[12] = SCPJU: Japanese bulrush, Scirpus juncoides, probit analysis
[13] = SEBEX: hemp sesbania, Sesbania exaltata, probit analysis
[14] = BRAPP: broadleaf signalgrass, Brachiaria platyphylla, read-out: Visual Growth Reduction (%) 21 Days After Application BRAPP
[15] = CYPSS: sedge (Cyperus difformis, esculentus, iria), read-out: Visual Growth Reduction (%) 21 Days After Application CYPSS
[16] = ECHSS: barnyardgrass (Echinochloa crus-galli), junglerice (Echinochloa colonum), read-out: Visual Growth Reduction (%) 21 Days After Application ECHSS
[17] = LEFSS: sprangletop (Leptochloa chinensis, Leptochloa dubia), read-out: Visual Growth Reduction (%) 21 Days After Application LEFSS
[18] = ORYSS: Oryza sativa, read-out: Visual Growth Reduction (%) 21 Days After Application ORYSS
[19] = SCPJU: Japanese bulrush, Scirpus juncoides, read-out: Visual Growth Reduction (%) 21 Days After Application SCPJU
[20] = SEBEX: hemp sesbania, Sesbania exaltata, read-out: Visual Growth Reduction (%) 21 Days After Application SEBEX

Q: For `COC(=O)c1nc(-c2ccc(C#N)c(F)c2)c(F)c(N)c1Cl` [Compound 135, methyl 4-amino-3-chloro-6-(4-cyano-3-fluorophenyl)-5-fluoropicolinate], which pest or weed control at 4040 g/ha [1] is on record?
A: 95 to 100%

Q: What about the pest or weed control at 4040 g/ha [2] of the same molecule?
A: 30 to 44%

Q: What about the pest or weed control at 4040 g/ha [3] of the same molecule?
A: 30 to 44%

Q: And the pest or weed control at 4040 g/ha [4]?
A: 95 to 100%

Q: And the pest or weed control at 4040 g/ha [5]?
A: 95 to 100%

Q: What about the pest or weed control at 4040 g/ha [6] of the same molecule?
A: 30 to 44%

Q: What about the “GR50 BRAPP” value [7, 8] of the same molecule?
A: 4 g ai/ha

Q: What about the “GR80 BRAPP” value [7, 8] of the same molecule?
A: 11 g ai/ha

Q: And the “GR50 CYPSS” value [7, 9]?
A: 5 g ai/ha

Q: And the “GR80 CYPSS” value [7, 9]?
A: 49 g ai/ha

Q: What about the “GR50 ECHSS” value [7, 10] of the same molecule?
A: 17 g ai/ha

Q: What about the “GR80 ECHSS” value [7, 10] of the same molecule?
A: 70 g ai/ha

Q: What about the “GR50 LEFSS” value [7, 11] of the same molecule?
A: 57 g ai/ha

Q: What about the “GR80 LEFSS” value [7, 11] of the same molecule?
A: 114 g ai/ha

Q: And the “GR20 ORYSS” value ([7]; ORYSS: Oryza sativa (crop), probit analysis)?
A: >70 g ai/ha

Q: And the “GR50 SCPJU” value [7, 12]?
A: 2 g ai/ha

Q: What about the “GR80 SCPJU” value [7, 12] of the same molecule?
A: 5 g ai/ha

Q: What about the “GR50 SEBEX” value [7, 13] of the same molecule?
A: 1 g ai/ha

Q: What about the “GR80 SEBEX” value [7, 13] of the same molecule?
A: 1 g ai/ha

Q: What about the pest or weed control at 35 g/ha [7, 14] of the same molecule?
A: 85 to 94%

Q: What about the pest or weed control at 70 g/ha [7, 14] of the same molecule?
A: 85 to 94%

Q: And the pest or weed control at 35 g/ha [7, 15]?
A: 75 to 84%

Q: What about the pest or weed control at 70 g/ha [7, 15] of the same molecule?
A: 85 to 94%

Q: What about the pest or weed control at 35 g/ha [7, 16] of the same molecule?
A: 75 to 84%

Q: What about the pest or weed control at 70 g/ha [7, 16] of the same molecule?
A: 75 to 84%

Q: And the pest or weed control at 35 g/ha [7, 17]?
A: 0 to 29%

Q: And the pest or weed control at 70 g/ha [7, 17]?
A: 60 to 74%

Q: What about the pest or weed control at 35 g/ha [7, 18] of the same molecule?
A: 0 to 29%

Q: What about the pest or weed control at 70 g/ha [7, 18] of the same molecule?
A: 0 to 29%

Q: What about the pest or weed control at 35 g/ha [7, 19] of the same molecule?
A: 85 to 94%

Q: What about the pest or weed control at 70 g/ha [7, 19] of the same molecule?
A: 95 to 100%

Q: And the pest or weed control at 35 g/ha [7, 20]?
A: 95 to 100%

Q: What about the pest or weed control at 70 g/ha [7, 20] of the same molecule?
A: 95 to 100%

Q: What does the source list for `COC(=O)c1nc(-c2ccc(Br)cc2)c(F)c(N)c1Cl` [Compound 138, Methyl 4-amino-6-(4-bromophenyl)-3-chloro-5-fluoropicolinate]?
A: pest or weed control at 4000 g/ha [1]: 95 to 100%; pest or weed control at 4000 g/ha [2]: 95 to 100%; pest or weed control at 4000 g/ha [3]: 95 to 100%; pest or weed control at 4000 g/ha [4]: 95 to 100%; pest or weed control at 4000 g/ha [5]: 95 to 100%; pest or weed control at 4000 g/ha [6]: 95 to 100%

Q: Which results are given for `Nc1c(F)c(-c2ccc(OC(F)F)cc2)nc(C(=O)O)c1Cl` [Compound 143]?
A: pest or weed control at 4000 g/ha [1]: 85 to 94%; pest or weed control at 4000 g/ha [2]: 60 to 74%; pest or weed control at 4000 g/ha [3]: 85 to 94%; pest or weed control at 4000 g/ha [4]: 95 to 100%; pest or weed control at 4000 g/ha [5]: 85 to 94%; pest or weed control at 4000 g/ha [6]: 95 to 100%

Q: `N#Cc1ccc(-c2nc(C(=O)O)c(Cl)c(N)c2F)cc1F` [Compound 156] was tested. Which pest or weed control at 4040 g/ha [1] did it give?
A: 95 to 100%

Q: And the pest or weed control at 4040 g/ha [2]?
A: 75 to 84%

Q: And the pest or weed control at 4040 g/ha [3]?
A: 95 to 100%

Q: And the pest or weed control at 4040 g/ha [4]?
A: 95 to 100%

Q: And the pest or weed control at 4040 g/ha [5]?
A: 95 to 100%

Q: What about the pest or weed control at 4040 g/ha [6] of the same molecule?
A: 95 to 100%

Q: `COC(=O)c1nc(-c2ccc(C(F)F)cc2)c(F)c(N)c1Cl` [Compound 209] was tested. Which pest or weed control at 4000 g/ha [1] did it give?
A: 95 to 100%

Q: What about the pest or weed control at 4000 g/ha [2] of the same molecule?
A: 95 to 100%

Q: And the pest or weed control at 4000 g/ha [3]?
A: 95 to 100%

Q: What about the pest or weed control at 4000 g/ha [4] of the same molecule?
A: 95 to 100%

Q: What about the pest or weed control at 4000 g/ha [5] of the same molecule?
A: 95 to 100%

Q: What about the pest or weed control at 4000 g/ha [6] of the same molecule?
A: 95 to 100%

Q: How did the pest or weed control at 3960 g/ha ([1]; 3.96 kg ai/ha) turn out when `C=Cc1c(C(=O)OC)nc(-c2ccc(Cl)c(F)c2)c(F)c1N` [Compound 215, methyl 4-amino-6-(4-chloro-3-fluorophenyl)-5-fluoro-3-vinylpicolinate] was run?
A: 95 to 100%

Q: What about the pest or weed control at 3960 g/ha ([2]; 3.96 kg ai/ha) of the same molecule?
A: 85 to 94%

Q: And the pest or weed control at 3960 g/ha ([3]; 3.96 kg ai/ha)?
A: 95 to 100%

Q: And the pest or weed control at 3960 g/ha ([4]; 3.96 kg ai/ha)?
A: 95 to 100%

Q: What about the pest or weed control at 3960 g/ha ([5]; 3.96 kg ai/ha) of the same molecule?
A: 95 to 100%

Q: What about the pest or weed control at 3960 g/ha ([6]; 3.96 kg ai/ha) of the same molecule?
A: 85 to 94%
